Assays:
Type in all cases: in vivo
[1] = test system: fall armyworm larvae (Spodoptera frugiperda); assay: whole plant or invertebrate; settings: 168 h
Method: Spodoptera frugiperda—Spray Test
(§1) • Solvent: 78.0 parts by weight acetone • 1.5 parts by weight dimethylformamide • Emulsifier: alkylarylpolyglycol ether
(§2) To produce a suitable preparation of active compound, 1 part by weight of active compound is mixed with the stated amount of solvents and is diluted with water, containing an emulsifier concentration of 1000 ppm, to the desired concentration. Further test concentrations are prepared by dilution with emulsifier containing water.
Maize (Zea mays) leaf sections are sprayed with a preparation of the active ingredient of the desired concentration. Once dry, the leaf sections are infested with fall armyworm larvae (Spodoptera frugiperda).
After 7 days mortality in % is determined. 100% means all caterpillars have been killed and 0% means none of the caterpillars have been killed.
Spodoptera frugiperda—Spray Test (SPODFR)
After the specified period of time, mortality in % is determined. 100% means all caterpillars have been killed and 0% means none of the caterpillars have been killed.

[2] = test system: larvae of the banded cucumber beetle (Diabrotica balteata); assay: Diabrotica balteata spray test; settings: 168 h, 100 g/ha (=32 μg/well), after 7 days, read-out: efficacy (seedling growth)
Method: Diabrotica balteata—Spray Test
(§3) • Solvent: 78.0 parts by weight of acetone • 1.5 parts by weight of dimethylformamide • Emulsifier: alkylarylpolyglycol ether
(§4) To produce a suitable preparation of active compound, 1 part by weight of active compound is mixed with the stated amount of solvent, and the concentrate is diluted with water, containing an emulsifier concentration of 1000 ppm, to the desired concentration. Further test concentrations are prepared by dilution with emulsifier containing water.
Soaked wheat seeds (Triticum aestivum) are placed in a multiple well plate filled with agar and some water and are incubated for 1 day to germinate (5 seeds per well). The germinated wheat seeds are sprayed with a test solution containing the desired concentration of the active ingredient. Afterwards each unit is infected with 10-20 larvae of the banded cucumber beetle (Diabrotica balteata).
After 7 days efficacy in % is determined. 100% means all the seedlings have grown up like in the untreated, uninfected control; 0% means none of the seedlings have grown.

[3] = test system: larvae of the southern green stink bug (Nezara viridula); assay: whole plant or invertebrate; settings: 96 h
Method: Nezara viridula—Spray Test
as §3, §4
Barley plants (Hordeum vulgare) are sprayed with a test solution containing the desired concentration of the active ingredient and are infested with larvae of the southern green stink bug (Nezara viridula).
After 4 days mortality in % is determined. 100% means all the stink bugs have been killed; 0% means none of the stink bugs have been killed.

[4] = test system: green peach aphid (Myzus persicae); assay: Myzus persicae spray test (MYZUPE); settings: 120 h; for mortality at 100 g/ha: after 5 days; for Emax at 20 g/ha / Emax at 100 g/ha: MYZUPE, 5 dat (Table 4), read-out: % Efficacy; for Emax at 20 g/ha: 20 g ai/ha; for Emax at 100 g/ha: 100 g ai/ha
Method: Myzus persicae—Spray Test
• Solvent: 78.0 parts by weight acetone • 1.5 parts by weight dimethylformamide • Emulsifier: alkylarylpoly glycol ether
as §2
Chinese cabbage (Brassica pekinensis) leaf disks infected with all instars of the green peach aphid (Myzus persicae), are sprayed with a preparation of the active ingredient of the desired concentration.
After 5 days mortality in % is determined. 100% means all aphids have been killed and 0% means none of the aphids have been killed.
Myzus persicae—Spray Test (MYZUPE)
as §1
After the specified period of time, mortality in % is determined. 100% means all aphids have been killed and 0% means none of the aphids have been killed.

Cc1nc([C@H](C)NC(=O)c2cc(Br)cc(OC(F)(F)F)c2)n(-c2cc(C(N)=O)ncn2)n1 [I-12]
mortality at 100 g/ha [1]: 100% | pest or weed control at 32 µg/disc, 100 g/ha [2]: 100% | mortality at 500 g/ha [3]: 100% | mortality at 100 g/ha [4]: 90%

C[C@H](NC(=O)c1cc(OC(F)(F)F)cc(S(=O)(=O)C(F)F)c1)c1ncnn1-c1cc(C(N)=O)ncn1 [I-45]
mortality at 100 g/ha [1]: 100% | pest or weed control at 32 µg/disc, 100 g/ha [2]: 100% | mortality at 500 g/ha [3]: 100% | mortality at 100 g/ha [4]: 90%

C[C@H](NC(=O)c1cccc(I)c1)c1ncnn1-c1cc(C(N)=O)ncn1 [I-48]
mortality at 100 g/ha [1]: 100% | pest or weed control at 32 µg/disc, 100 g/ha [2]: 100% | mortality at 500 g/ha [3]: 100% | mortality at 100 g/ha [4]: 90%

C[C@H](NC(=O)c1cc(OC(F)(F)F)cc(S(=O)(=O)C(F)(F)F)c1)c1ncnn1-c1cc(C(N)=O)ncn1 [I-58]
mortality at 100 g/ha [1]: 100% | pest or weed control at 32 µg/disc, 100 g/ha [2]: 100% | mortality at 500 g/ha [3]: 100% | mortality at 100 g/ha [4]: 90%

C[C@H](NC(=O)c1cc(Cl)cc(S(=O)(=O)C(F)(F)F)c1)c1ncnn1-c1ccccn1 [I-068 Known from WO 2019197468, reference compound]
Emax at 20 g/ha [4]: 0% | Emax at 100 g/ha [4]: 0%

C[C@H](NC(=O)c1cc(Cl)cc(S(=O)(=O)C(F)(F)F)c1)c1ncnn1-c1cc(C#N)ccn1 [I-075 Known from WO 2019197468, reference compound]
Emax at 20 g/ha ([1]; SPODFR, 20 g ai/ha, 7 dat (Table 4), read-out: % Efficacy): 33% | Emax at 100 g/ha ([1]; SPODFR, 100 g ai/ha, 7 dat (Table 4), read-out: % Efficacy): 100% | Emax at 20 g/ha [4]: 70% | Emax at 100 g/ha [4]: 90%

CC(C)N(C)C(=O)c1cc(-n2ncnc2[C@H](C)NC(=O)c2cc(OC(F)F)cc(OC(F)F)c2)ncn1 [I-97]
mortality at 100 g/ha [1]: 100% | mortality at 100 g/ha [4]: 90%

CC(C)N(C)C(=O)c1cc(-n2ncnc2[C@H](C)NC(=O)c2cc(Br)cc(OC(F)F)c2)ncn1 [I-103]
mortality at 100 g/ha [1]: 100% | pest or weed control at 32 µg/disc, 100 g/ha [2]: 100% | mortality at 100 g/ha [4]: 90%

C[C@H](NC(=O)c1cc(Br)cc(OC(F)(F)C(F)F)c1)c1ncnn1-c1cc(C(N)=O)ncn1 [I-112]
mortality at 100 g/ha [1]: 100% | pest or weed control at 32 µg/disc, 100 g/ha [2]: 100% | mortality at 100 g/ha [4]: 100%

C[C@H](NC(=O)c1cc(Cl)cc(OC(F)(F)C(F)F)c1)c1ncnn1-c1cc(C(N)=O)ncn1 [I-113, 6-(5-{(1S)-1-[3-chloro-5-(1,1,2,2-tetrafluoroethoxy)benzamido]ethyl}-1H-1,2,4-triazol-1-yl)pyrimidine-4-carboxamide]
mortality at 100 g/ha [1]: 100% | mortality at 100 g/ha [4]: 90%

Cc1nc([C@H](C)NC(=O)c2cc(OC(F)(F)F)cc(OC(F)(F)F)c2)n(-c2cc(C(N)=O)ncn2)n1 [I-117]
mortality at 100 g/ha [1]: 100% | pest or weed control at 32 µg/disc, 100 g/ha [2]: 100% | mortality at 500 g/ha [3]: 100%

C[C@H](NC(=O)c1cc(Cl)cc(S(=O)(=O)C(F)F)c1)c1ncnn1-c1cc(C#N)ncn1 [I-119]
mortality at 100 g/ha [1]: 100% | pest or weed control at 32 µg/disc, 100 g/ha [2]: 100% | mortality at 500 g/ha [3]: 100%

Cc1nc([C@H](C)NC(=O)c2cc(Br)cc(C#N)c2)n(-c2cc(C(N)=O)ncn2)n1 [I-127]
mortality at 100 g/ha [1]: 100% | pest or weed control at 32 µg/disc, 100 g/ha [2]: 100% | mortality at 100 g/ha [3]: 90% | mortality at 500 g/ha [3]: 100%

C[C@H](NC(=O)c1ccnc(OC(F)(F)F)c1)c1ncnn1-c1cc(C(N)=O)ncn1 [I-132]
mortality at 100 g/ha [1]: 100% | pest or weed control at 32 µg/disc, 100 g/ha [2]: 100% | mortality at 500 g/ha [3]: 100%

C[C@H](NC(=O)c1cc(Br)cc(S(=O)(=O)C(F)(F)F)c1)c1ncnn1-c1cc(C(N)=O)ncn1 [I-138]
mortality at 100 g/ha [1]: 100% | pest or weed control at 32 µg/disc, 100 g/ha [2]: 80% | mortality at 500 g/ha [3]: 100%

C[C@H](NC(=O)c1cc(Br)cc(S(C)(=O)=O)c1)c1nc(C2CC2)nn1-c1cc(C(N)=O)ncn1 [I-143]
mortality at 100 g/ha [1]: 100% | mortality at 500 g/ha [3]: 100% | mortality at 100 g/ha [4]: 100%

C[C@H](NC(=O)c1cc(Br)nc(Br)c1)c1ncnn1-c1cc(C(N)=O)ncn1 [I-148]
mortality at 100 g/ha [1]: 100% | pest or weed control at 32 µg/disc, 100 g/ha [2]: 100% | mortality at 500 g/ha [3]: 100%

C[C@H](NC(=O)c1cc(Cl)cc(S(C)(=O)=O)c1)c1nc(C2CC2)nn1-c1cc(C(N)=O)ncn1 [I-150]
mortality at 100 g/ha [1]: 100% | mortality at 500 g/ha [3]: 100% | mortality at 100 g/ha [4]: 90%

C[C@H](NC(=O)c1cc(OC(F)F)cc(OC(F)F)c1)c1nc(C2CC2)nn1-c1cc(C(N)=O)ncn1 [I-152]
mortality at 100 g/ha [1]: 100% | pest or weed control at 32 µg/disc, 100 g/ha [2]: 100% | mortality at 100 g/ha [4]: 100%

C[C@H](NC(=O)c1cc(OC(F)(F)F)cc(S(=O)(=O)C(F)F)c1)c1nc(C2CC2)nn1-c1cc(C(=O)N(C)C)ncn1 [I-156]
mortality at 100 g/ha [1]: 100% | pest or weed control at 32 µg/disc, 100 g/ha [2]: 100% | mortality at 100 g/ha [4]: 90%

C[C@H](NC(=O)c1cc(OC(F)(F)F)cc(C2CC2)c1)c1nc(C2CC2)nn1-c1cc(C(=O)N(C)C)ncn1 [I-159]
mortality at 100 g/ha [1]: 100% | pest or weed control at 32 µg/disc, 100 g/ha [2]: 100% | mortality at 100 g/ha [4]: 90%

C[C@H](NC(=O)c1cc(Cl)cc(S(C)(=O)=O)c1)c1nc(C2CC2)nn1-c1cc(C(=O)N(C)C)ncn1 [I-160]
mortality at 100 g/ha [1]: 83% | pest or weed control at 32 µg/disc, 100 g/ha [2]: 100% | mortality at 100 g/ha [4]: 100%

C[C@H](NC(=O)c1cc(Cl)cc(S(=O)(=O)C(F)F)c1)c1nc(C2CC2)nn1-c1cc(C(=O)N(C)C)ncn1 [I-161]
mortality at 100 g/ha [1]: 100% | pest or weed control at 32 µg/disc, 100 g/ha [2]: 100% | mortality at 100 g/ha [4]: 90%

CC(C)NC(=O)c1cc(-n2ncnc2[C@H](C)NC(=O)c2cc(OC(F)(F)F)cc(C3(C#N)CC3)c2)ncn1 [I-163]
mortality at 100 g/ha [1]: 100% | pest or weed control at 32 µg/disc, 100 g/ha [2]: 100% | mortality at 100 g/ha [4]: 100%

C[C@H](NC(=O)c1cc(C(F)(F)F)cc(S(C)(=O)=O)c1)c1nc(C2CC2)nn1-c1cc(C(=O)N(C)C)ncn1 [I-164]
pest or weed control at 32 µg/disc, 100 g/ha [2]: 80% | mortality at 100 g/ha [4]: 100%

C[C@H](NC(=O)c1cc(Cl)cc(OC(F)(F)F)c1)c1nc(C2CC2)nn1-c1cc(C(=O)N(C)C)ncn1 [I-166]
mortality at 100 g/ha [1]: 100% | pest or weed control at 32 µg/disc, 100 g/ha [2]: 100% | mortality at 100 g/ha [4]: 100%

C[C@H](NC(=O)c1cc(OC(F)(F)F)cc(C2(C#N)CC2)c1)c1nc(C2CC2)nn1-c1cc(C(=O)N(C)C)ncn1 [I-167]
mortality at 100 g/ha [1]: 100% | pest or weed control at 32 µg/disc, 100 g/ha [2]: 80% | mortality at 100 g/ha [4]: 100%

CCNC(=O)c1cc(-n2ncnc2[C@H](C)NC(=O)c2cc(OC(F)(F)F)cc(C3(C#N)CC3)c2)ncn1 [I-168]
mortality at 100 g/ha [1]: 100% | pest or weed control at 32 µg/disc, 100 g/ha [2]: 100% | mortality at 100 g/ha [4]: 100%

C[C@H](NC(=O)c1cc(OC(F)(F)F)cc(C2(C#N)CC2)c1)c1ncnn1-c1cc(C(=O)NC2CC2)ncn1 [I-169]
mortality at 100 g/ha [1]: 100% | pest or weed control at 32 µg/disc, 100 g/ha [2]: 100% | mortality at 100 g/ha [4]: 90%

Source: patent publication US12612386B2, “Heteroaryl-triazole compounds as pesticides” (Bayer Aktiengesellschaft, priority 2020, dated 2026)
